Data published in article PMC6355894, “Cryo-EM structure of the essential ribosome assembly AAA-ATPase Rix7” (Nature Communications, 2019).

Experiments:
[1] = target: T1, CT Rix7 (Thermochaetoides thermophila, UniProt G0RZG1, E303Q/E602Q); assay: cryo-EM structure of the complex ([…] A); conditions: co-purified nucleotide, no ATP added; 5 mM MgCl2, pH 8; nucleotide-binding pockets of D1 and D2 AAA domains; ATP geometry restrained to reference structure
T1 construct: gene CTHT_0002840; full-length (NTD residues 1-192 not seen in map), codon-optimised, pET24b, C-terminal His6, expressed in E. coli BL21(DE3)*; asymmetric homohexamer

[2] = target: Chaetomium thermophilum Rix7 double Walker B mutant (CT Rix7 E303Q/E602Q) (Chaetomium thermophilum); assay: cryo-EM structure; CT Rix7 E303Q/E602Q at ~0.6 mg/ml after SEC in Buffer A (20 mM Tris-HCl pH 8, 150 mM NaCl, 5 mM MgCl2, 0.5 mM DTT); no ATP and no substrate added; no symmetry imposed (C1); 4.5 Å

T1 sequence (G0RZG1 entry or part of it E303Q/E602Q): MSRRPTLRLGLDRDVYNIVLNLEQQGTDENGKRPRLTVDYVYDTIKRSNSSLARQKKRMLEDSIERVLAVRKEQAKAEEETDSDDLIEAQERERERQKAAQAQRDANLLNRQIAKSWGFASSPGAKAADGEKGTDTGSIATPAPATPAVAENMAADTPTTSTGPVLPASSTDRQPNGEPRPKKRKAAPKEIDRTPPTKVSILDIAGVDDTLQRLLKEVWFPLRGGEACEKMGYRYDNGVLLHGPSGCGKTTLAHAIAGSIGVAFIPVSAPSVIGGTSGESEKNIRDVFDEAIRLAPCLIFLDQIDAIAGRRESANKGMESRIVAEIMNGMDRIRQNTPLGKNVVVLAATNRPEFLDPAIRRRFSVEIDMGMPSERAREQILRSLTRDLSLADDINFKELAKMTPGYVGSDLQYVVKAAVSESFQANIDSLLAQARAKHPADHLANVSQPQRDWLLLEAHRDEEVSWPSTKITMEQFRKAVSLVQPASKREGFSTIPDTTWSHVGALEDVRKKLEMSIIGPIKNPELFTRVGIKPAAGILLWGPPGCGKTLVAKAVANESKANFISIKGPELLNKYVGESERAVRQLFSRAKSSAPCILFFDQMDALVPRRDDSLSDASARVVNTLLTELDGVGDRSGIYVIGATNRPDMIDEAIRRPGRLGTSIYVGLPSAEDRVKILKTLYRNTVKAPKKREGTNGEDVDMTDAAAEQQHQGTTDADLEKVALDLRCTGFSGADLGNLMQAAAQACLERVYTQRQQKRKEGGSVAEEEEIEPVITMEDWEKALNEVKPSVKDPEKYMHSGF

Row | stoichiometry N [2] | Compound | cryo-EM structure of the complex (4.5 A) [1]
1 |  | Nc1ncnc2c1ncn2[C@@H]1O[C@H](COP(=O)(O)OP(=O)(O)OP(=O)(O)O)[C@@H](O)[C@H]1O [ATP] | In the D1 AAA domain, ATP is present in the nucleotide pockets of all six protomers
2 | 6 | Chaetomium thermophilum Rix7 double Walker B mutant (CT Rix7 E303Q/E602Q) (enzyme) | 
